Experimental data reported in PubChem BioAssay AID977627 (Broad Institute, 2014).
Records with an inconclusive call do not appear.

Tested on: E. coli H38 humanized ribosome GFP strain, fluorescence, 24 h
Assay: growth inhibition of wild-type RFP versus H38-humanized GFP E. coli, dose response, H38 mutant GFP vs wild-type RFP, cherry-pick (AID 977627)
Conditions: measured here: total growth OD600

SMILES | AC50
COC(=O)c1c(NC(=O)CCC(=O)O)sc(Cc2ccccc2)c1C | > 100 µM
CC1(Cc2ccccc2C#N)C(=O)Nc2cc(-c3ccccc3Cl)ccc21 (configuration not stated) | 41.9 µM
